Laboratory results as given in patent publication US20140073611A1, “METHODS FOR DRUG SCREEN USING ZEBRAFISH MODEL AND THE COMPOUNDS SCREENED THEREFROM” (National Taiwan University, priority 2012, published 2014).
Counter-ions that a name gives are not always drawn.

Key:
zLum-MO-injected fish [1] = conditions: in vivo zebrafish larvae assays; prior reference Yeh et al., J Biol Chem 2010; cited from earlier work
zLum-MO-injected fish [2] = test: Eye morphometry and phenotype of zLum-MO-injected fish after muscarinic antagonist treatment (FIGS. 7-8); assay type: in vivo, zebrafish; conditions: for diameter of the scleral coat / excessive axial elongation: zLum-MO-injected fish at 7 dpf, FIG. 7(C); for diameter of the scleral coat / excessive axial elongation / ratio of RPE/scleral coat (%): 0.5% atropine, 0.25% pirenzepine; for diameter of the scleral coat / excessive axial elongation / ratio of RPE/scleral coat (%) / ocular enlargement (phenotype): 0.01% methoctramine; for ratio of RPE/scleral coat (%): zLum-MO-injected fish, FIG. 7(D); for ocular enlargement (phenotype): zLum-MO-injected larvae at 7 dpf, 0.5% atropine for 2 days, 0.25% pirenzepine for 2 days, FIG. 8
Excerpt: FIGS. 7(A)-(D) depict a zebrafish drug screen assay. FIGS. 7(A) and (B) illustrate and define the outer margin of the retinal pigmented epithelium layer (RPE(red color)) and the diameter of the scleral coat (D(green color)) in zebrafish.
(§1) Big eye in a zebrafish is an indicator of myopia. As used herein, a “big eye” refers to an eye with an enlarged axial length of eyeball and denotes the value of the axial length of the retinal pigmented epithelium layer divided by the axial length of the scleral coat less than 0.7. The axial length of a retinal pigmented epithelium layer and the axial length of a scleral coat can be measured by any method known in the art—for example, dissecting microscopy.
Morpholinos are chemically modified antisense oligonucleotides that can be designed to hybridize to the translation-initiation or splicing acceptor/donor sites of specific mRNAs (Nasevicius A, Ekker S C. Effective targeted gene ‘knockdown’ in zebrafish. Nat Genet 2000; 26(2):216-20). A morpholino-antisense oligonucleotide (Gene Tools, Philomath, Oreg.) are designed and synthesized to target the 5′-untranslated and/or flanking regions, including the translation start codon of the respective genes. The MO sequence is designed as follows: zLum-MO, 5′-[…]-3′. This oligonucleotide complemented the sequence from −8 through +17 with respect to the translation initiation codon. A random sequence MO (RS-MO) serves as a control for zLum-MO: 5′-[…]-3′. This RS-MO is obtained from Gene Tools as a standard control oligonucleotide with no target specificity (Yeh L K, Liu C Y, Kao W W, et al. Knockdown of zebrafish lumican gene (zlum) causes scleral thinning and increased size of scleral coats. J Biol Chem 2010; 285(36):28141-55).
(§2) Morpholino is resuspended in sterile water to a concentration of 1 mmol/L and diluted to […] with sterile water. The morpholinos are injected at the single-cell stage in a volume of 0.0023 nL. Here, we identified the effects of morpholinos on protein levels are assayed with western blotting from injected embryos with GAPDH as a control.

[3] = system: lumican knockdown zebrafish (zLum-MO); test: Drug screen in lumican (zLum-MO) knockdown zebrafish: big eye ratio / scleral coat enlargement; assay type: in vivo; conditions: for % of scleral enlargement in experimental group: zLum-MO knockdown model, vs. 30% of scleral enlargement in control group; for outcome of the screen of about 30 drugs: lumican knockdown zebrafish model
Procedure: The term “big eye” denotes that an eye with a value of the axial length of the retinal pigmented epithelium layer divided by the axial length of the scleral coat is less than 0.7.
According to the disclosure, the knockdown zebrafish are exposed to a test compound at the optic cup formation stage thereof. Generally, at around 24 hours after fertilization, the optic cup of zebrafish is formed. The knockdown zebrafish can be exposed to the test compound at the optic cup formation stage. After contacting the knockdown zebrafish with the test compound, the test compound, if it is a potential candidate, may start to activate the expression of lumican and collagen fibrillogenesis, thereby decreasing the enlargement of eyeball and treating and/or preventing myopia and/or keratoconus disease. Retina lenses are established around 48 hours after fertilization, and the sclera and cornea are established around 72 hours after fertilization. At sclera and cornea establishment stage, the zebrafish are collected.
as §1
The test compound can be identified as a candidate compound affecting the expression of lumican and/or collagen fibrillogenesis and/or regulation of eyeball size, and/or treating and/or preventing myopia and/or keratoconus disease if the ratio of the number of big eyes decreases relative to the total number of eyes in zebrafish or that of big eyes in control zebrafish that is not contacted with the test compound. […] Preferably, the ratio is less than 15%. More preferably, the ratio decreases to about 0% to about 30%, about 0% to about 25%, about 0% to about 20%, about 0% to about 15%, about 0% to about 10%, about 1% to about 30%, about 1% to about 25%, about 1% to about 20% or about 1% to about 15%.
Zebrafish are raised and maintained according to previously established protocols (Soules K A, Link B A. Morphogenesis of the anterior segment in the zebrafish eye. BMC Dev Biol 2005; 5:12). All experiments are performed on Tuebingen AB zebrafish raised at 28° C. on a 14-h light and 10-h dark cycle and maintained using standard methods. Embryos are staged according to morphological criteria (somite number) (Kimmel C B, Ballard W W, Kimmel S R, et al. Stages of embryonic development of the zebrafish. Dev Dyn 1995; 203(3):253-310) and timed in hours after fertilization. Embryos are generated by natural pair-wise mating, as described in the zebrafish handbook (Westerfield M. The Zebrafish Book; A Guide for the Laboratory Use of Zebrafish (Brachydanio rerio). University of Oregon Press, Eugene, 2nd edition 300P., 1993). For each mating, 4±5 pairs are set up and, on an average; 100±150 embryos per pair are generated. The zebrafish embryo is optically transparent, making it possible to detect functional and morphological changes in internal organs without having to kill or dissect the organism. Chorions are removed manually with Dumont Watchmaker's Forceps No. 5.
Morpholinos are chemically modified antisense oligonucleotides that can be designed to hybridize to the translation-initiation or splicing acceptor/donor sites of specific mRNAs (Nasevicius A, Ekker S C. Effective targeted gene ‘knockdown’ in zebrafish. Nat Genet 2000; 26(2):216-20). A morpholino-antisense oligonucleotide (Gene Tools, Philomath, Oreg.) are designed and synthesized to target the 5′-untranslated and/or flanking regions, including the translation start codon of the respective genes. The MO sequence is designed as follows: zLum-MO, 5′-[…]-3′.

[4] = system: lumican, collagen 1a1, TGF-beta, MMP2 and TIMP2; test: Expression patterns in atropine-treated zLum knockdown morphant (FIG. 9); assay type: in vivo, zebrafish
Procedure: FIG. 9 depicts atropine rescues zLum knockdown morphant.
as §2
We used several antibodies to evaluate the effects of lumican knockdown and all can be obtained from different commercial supplies. Rabbit anti-TGFβ2, Rabbit anti-MMP-2, Goat anti-TIMP-2, Goat anti-Col1a1 (L-19) and Goat anti-PDI are obtained from Santa Cruz. Mouse anti-GAPDH is obtained from Abnova.

SMILES: CN1CCN(CC(=O)N2c3ccccc3C(=O)Nc3cccnc32)CC1 [Pirenzepine dihydrochloride]
- ocular enlargement caused by morpholinos (zLum-MO-injected fish [1]): effectively subdued the ocular enlargement
- diameter of the scleral coat (zLum-MO-injected fish [2]): Significant decreases
- excessive axial elongation (zLum-MO-injected fish [2]): significant decreases
- ratio of RPE/scleral coat (%) (zLum-MO-injected fish [2]): attenuate the decreasing ratio
- ocular enlargement (phenotype) (zLum-MO-injected fish [2]): decreases in ocular enlargement

SMILES: COc1ccccc1CNCCCCCCNCCCCCCCCNCCCCCCNCc1ccccc1OC [methoctramine]
- diameter of the scleral coat (zLum-MO-injected fish [2]): no obvious changes
- excessive axial elongation (zLum-MO-injected fish [2]): no obvious changes
- ratio of RPE/scleral coat (%) (zLum-MO-injected fish [2]): no obvious changes
- ocular enlargement (phenotype) (zLum-MO-injected fish [2]): no obvious changes in the phenotypes

SMILES: C[C@H]1c2cccc(O)c2C(=O)C2=C(O)[C@]3(O)C(=O)C(C(N)=O)=C(O)[C@@H](N(C)C)[C@@H]3[C@@H](O)[C@@H]21 [Doxycycline hyclate]
- % of scleral enlargement in experimental group [3]: 6.8%

SMILES: CC(C)c1cccc(C(C)C)c1O [Propofol, 2,6-diisopropylphenol]
- outcome of the screen of about 30 drugs [3]: effective candidate compounds
- % of scleral enlargement in experimental group [3]: 12%

SMILES: CNC(=O)[C@@H](NC(=O)[C@H](CC(C)C)[C@H](O)C(=O)NO)C(C)(C)C [Marimastat]
- outcome of the screen of about 30 drugs [3]: effective candidate compounds
- % of scleral enlargement in experimental group [3]: 2%

SMILES: CC(=O)N[C@@H](CS)C(=O)O [n-acetylcysteine]
- outcome of the screen of about 30 drugs [3]: effective candidate compounds
- % of scleral enlargement in experimental group [3]: 11.7%

SMILES: CN1[C@@H]2CC[C@H]1C[C@@H](OC(=O)C(CO)c1ccccc1)C2 (some centres unmarked) [Atropine]
- ocular enlargement caused by morpholinos (zLum-MO-injected fish [1]): effectively subdued the ocular enlargement
- scleral coat enlargement (zLum-MO-injected fish [2]; lumican knockdown fish, administration of atropine, FIGS. 7 to 9): could be inhibited
- diameter of the scleral coat (zLum-MO-injected fish [2]): Significant decreases
- excessive axial elongation (zLum-MO-injected fish [2]): significant decreases
- ratio of RPE/scleral coat (%) (zLum-MO-injected fish [2]): attenuate the decreasing ratio
- ocular enlargement (phenotype) (zLum-MO-injected fish [2]): significant decreases in ocular enlargement
- expression of MMP-2 and TIMP ([4]; lumican knockdown fish, atropine treatment): returned to the normal level
- expressions of lumican, collagen 1a1, TGF-beta, MMP2 and TIMP2 in lumican morphant ([4]; zLum knockdown morphant treated with atropine, FIG. 9): reverse the expressions

SMILES: CC(C)[N+]1(C)[C@@H]2CC[C@H]1CC(OC(=O)C(CO)c1ccccc1)C2.[Br-] (some centres unmarked) [Ipratropium bromide]
- Big eye rate(%) ([3]; lumican knockdown zebrafish, big eye = RPE/scleral coat axial length < 0.7, Conc.: Atropine 0.50%, Tropicamide 1 mM, Ipratropium 50 mM, Oxybutynin 2 uM, Scopolamine 100 uM, Pirenzepine 0.25%, SB 431542 25 uM, Tamoxifen 20 uM, Doxycycline 100 ppm, Genistein 25 uM, Marimastat 50 uM, Taurine 0.2M, Minocycline 50 uM, n-acetylcysteine 10 uM, Aspirin 50 mg/L, Propofol 0.5 mM, SP600125 2.5 uM, Zileuton 1): 26.0%

SMILES: CN(C)c1ccc(O)c2c1C[C@H]1C[C@H]3[C@H](N(C)C)C(O)=C(C(N)=O)C(=O)[C@@]3(O)C(O)=C1C2=O [Minocycline hydrochloride]
- % of scleral enlargement in experimental group [3]: 4.7%

SMILES: C[C@H](CS)C(=O)N1CCC[C@H]1C(=O)O [Captopril]
- outcome of the screen of about 30 drugs [3]: effective candidate compounds

SMILES: CC(=O)Oc1ccccc1C(=O)O [Aspirin]
- outcome of the screen of about 30 drugs [3]: effective candidate compounds
- % of scleral enlargement in experimental group [3]: 9.6%
